For 30 compounds, melting point results are on record in US10464926B2, “Heterobicyclic compounds and their use for the treatment of tuberculosis” (OTSUKA PHARMACEUTICAL CO., LTD., priority 2014, dated 2019).

As for `CCOc1cc(F)c(N2CCC(O)(COc3ccc(F)c4c3CCC(=O)N4)CC2)cc1F`, the melting point is 174.1 to 174.5 °C.

As to `COCCOCCOc1ccc(N2CCC(O)(COc3ccc(F)c4c3CCC(=O)N4)CC2)c(F)c1`, the melting point lay in the range of 128.7 to 130.7 °C.

The compound `CCOc1cc(N2CCC(O)(COc3ccc(Cl)c4c3CCC(=O)N4)CC2)c(F)cc1Cl` gave a melting point of 228.1 to 229 °C.

Compound `Cc1cc(N2CCC(O)(COc3ccc(Cl)c4c3CCC(=O)N4)CC2)c(F)cc1Cl` had a melting point of 212.2 to 213.1 °C.

For `CCOc1cc(F)c(N2CCC(O)(COc3ccc(Cl)c4c3CCC(=O)N4)CC2)c(F)c1`, the melting point lay within 180.6 to 181 °C. The figure for `O=C1CCc2c(OCC3(O)CCN(c4ccc(OCc5ccc(Cl)cc5Cl)cc4F)CC3)ccc(F)c2N1` is 175.9 to 177.1 °C; for `Cc1ccc(N2CCC(O)(COc3ccc(Cl)c4c3CCC(=O)N4)CC2)nc1C` it is 169.6 to 171 °C.

In the case of `CCOc1cnc(N2CCC(O)(COc3ccc(F)c4c3CCC(=O)N4)CC2)c(Cl)c1`, the melting point was in the range of 187.9 to 190.2 °C.

In the case of `CCc1cc(N2CCC(O)(COc3ccc(F)c4c3CCC(=O)N4)CC2)c(F)cc1F`, the melting point was 186.7 to 186.8 °C. Turning to `CCSc1cc(F)c(N2CCC(O)(COc3ccc(Cl)c4c3CCC(=O)N4)CC2)c(F)c1`, the melting point was in the range of 157.4 to 157.5 °C. In the case of `O=C1CCc2c(OCC3(O)CCN(c4ccc(OCc5ccc(C(F)(F)F)cn5)cc4F)CC3)ccc(F)c2N1`, the melting point was 194.9 to 195.1 °C.

`O=C1CCc2c(OCC3(O)CCN(c4c(F)cc(OCC(F)(F)F)cc4F)CC3)ccc(F)c2N1` came in with a melting point of 189.8 to 189.9 °C.

For `O=C1CCc2c(OCC3(O)CCN(c4c(F)cc(OCC(F)(F)F)cc4F)CC3)ccc(Cl)c2N1`, the melting point was 178.6 to 178.7 °C. As for `O=C1CCc2c(OCC3(O)CCN(c4c(F)cc(Br)cc4F)CC3)cc(F)c(Cl)c2N1`, the figure is 200.5 to 200.8 °C; as for `O=C1CCc2c(OC[C@]3(O)CCN(c4cc(Cl)c(F)cc4Cl)C[C@H]3O)ccc(F)c2N1`, 216 to 216.3 °C.

For the compound `O=C1CCc2c(OC[C@]3(O)CCN(c4ccccc4F)C[C@H]3O)ccc(F)c2N1`, the melting point was in the range of 177.7 to 178 °C. The compound `O=C1CCc2c(OC[C@]3(O)CCN(c4c(F)cc(Br)cc4F)C[C@H]3O)cc(F)c(Cl)c2N1` registered a melting point of 199 to 199.6 °C. `O=C1CCc2c(OC[C@]3(O)CCN(c4nc5ccccc5o4)C[C@H]3O)ccc(F)c2N1` returned a melting point of 190 to 191 °C. On to `CCCOc1cc(F)c(N2CC[C@@](O)(COc3ccc(F)c4c3CCC(=O)N4)[C@H](O)C2)c(F)c1`, for which the melting point was 194.8 to 195 °C. On to `O=c1ccc2c(OC[C@]3(O)CCN(c4c(F)cc(Cl)cc4F)C[C@H]3O)ccc(Cl)c2[nH]1`, for which the melting point lay in the range of 228.8 to 229.5 °C.

The compound `N#Cc1cc(F)ccc1N1CCC(O)(COc2ccc(F)c3c2CCC(=O)N3)CC1` displayed a melting point of 206 to 206.9 °C. For the compound `O=C1CCc2c(OCC3(O)CCN(c4ccc5ccccc5n4)CC3)ccc(F)c2N1`, the melting point fell in the range of 198 to 199 °C. For `O=C1CCc2c(OCC3(O)CCN(c4nccc5ccccc45)CC3)ccc(F)c2N1`, the melting point lay within 198 to 199 °C. The figure for `O=C1CCc2c(OCC3CCN(c4ncc(Cl)cc4Cl)CC3)ccc(Cl)c2N1` is 190 to 191 °C; for `COC1(COc2ccc(F)c3c2CCC(=O)N3)CCN(c2ncc(Cl)cc2Cl)CC1` it is 181 to 182 °C; for `N#Cc1cc(F)ccc1N1CCC(COc2ccc(F)c3c2CCC(=O)N3)(ON)CC1` it is 207 to 208 °C. Regarding `N#CC1(COc2ccc(F)c3c2CCC(=O)N3)CCN(c2ncc(Cl)cc2Cl)CC1`, the melting point stood at 218 °C.

In the case of `Cc1cc(Cl)ccc1N1CCC(O)(COc2ccc(F)c3c2CCC(=O)N3)CC1`, the melting point was in the range of 214 to 215 °C. `O=C1CCc2c(OCC3(O)CCN(c4ccc(Cl)cc4Br)CC3)ccc(F)c2N1` showed a melting point of 204.9 °C. In the case of `CCc1ccccc1N1CCC(O)(COc2ccc(F)c3c2CCC(=O)N3)CC1`, the melting point was in the range of 178.6 to 179.3 °C.
